Test results taken from ChEMBL document CHEMBL4145572, “Non-covalent Small-Molecule Kelch-like ECH-Associated Protein 1-Nuclear Factor Erythroid 2-Related Factor 2 (Keap1-Nrf2) Inhibitors and Their Potential for Targeting Central Nervous System Diseases” (J Med Chem, 2018).

Key:
Keap1/Nrf2 [1] = target: T1, Keap1/Nrf2 (Homo sapiens, UniProt Q14145); test: Inhibition of full length Flag/His-tagged Keap1 kelch domain (unknown origin)/full length Avi-tagged Nrf2 (unknown origin) interaction after 2.25 hrs by TR-FRET assay; type: protein assay
[2] = target: T2, Kelch-like ECH-associated protein 1 (Homo sapiens, UniProt Q14145); test: Activation of human GST-tagged Keap1-DC (321 to 609 residues) expressed in human Huh transformed cells after 16 hrs by ARE-based steady-glo luciferase reporter gene assay; type: cell-based
[3] = Ratio of unbound drug level in mouse brain to plasma; type: ADME; settings: read-out: K(p,uu,brain)
MDR1 = test: Efflux ratio of apparent permeability in MDCK-MDR1 cells at 10 uM up to 120 mins; type: ADME, cell-based, Canis lupus familiaris; settings: dog
Keap1/Nrf2 [4] = target: T1, Keap1/Nrf2; test: Inhibition of Keap1 kelch domain (unknow origin)/Nrf2-ETGE peptide (unknown origin) interaction by fluorescence polarization assay; type: protein assay
[5] = target: T2, Kelch-like ECH-associated protein 1; test: Inhibition of human Keap1 kelch domain (321 to 609 residues) binding to TAMRA-labeled Nrf2-ETGE peptide after 1 hr by fluorescence polarization assay
Keap1/Nrf2 [6] = target: T1, Keap1/Nrf2; test: Inhibition of Keap1/NRF2 interaction in human BEAS-2B cells assessed as upregulation of NQ01 after 48 hrs by MTT assay; type: cell-based
[7] = Ratio of unbound drug level in Mdr1a/1b/Bcrp knock-out mouse brain to plasma; type: ADME; settings: read-out: K(p,uu,brain)

T1 sequence (Q16236 whole entry, the tested form may be a part): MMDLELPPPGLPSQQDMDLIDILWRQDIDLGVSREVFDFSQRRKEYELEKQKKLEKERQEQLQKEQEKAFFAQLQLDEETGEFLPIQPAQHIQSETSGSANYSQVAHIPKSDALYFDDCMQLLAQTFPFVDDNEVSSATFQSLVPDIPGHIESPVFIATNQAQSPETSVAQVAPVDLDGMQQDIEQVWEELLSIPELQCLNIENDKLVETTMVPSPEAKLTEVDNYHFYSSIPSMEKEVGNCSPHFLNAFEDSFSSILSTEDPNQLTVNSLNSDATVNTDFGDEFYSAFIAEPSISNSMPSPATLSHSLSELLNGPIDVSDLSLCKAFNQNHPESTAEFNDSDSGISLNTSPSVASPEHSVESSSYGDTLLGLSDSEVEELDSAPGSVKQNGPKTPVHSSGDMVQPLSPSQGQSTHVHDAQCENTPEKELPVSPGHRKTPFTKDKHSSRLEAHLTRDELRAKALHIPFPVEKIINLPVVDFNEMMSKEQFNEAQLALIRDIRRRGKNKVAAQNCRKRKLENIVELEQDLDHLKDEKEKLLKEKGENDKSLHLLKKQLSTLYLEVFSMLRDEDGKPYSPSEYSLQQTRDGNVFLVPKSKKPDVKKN
T1 sequence (Q14145 whole entry, the tested form may be a part): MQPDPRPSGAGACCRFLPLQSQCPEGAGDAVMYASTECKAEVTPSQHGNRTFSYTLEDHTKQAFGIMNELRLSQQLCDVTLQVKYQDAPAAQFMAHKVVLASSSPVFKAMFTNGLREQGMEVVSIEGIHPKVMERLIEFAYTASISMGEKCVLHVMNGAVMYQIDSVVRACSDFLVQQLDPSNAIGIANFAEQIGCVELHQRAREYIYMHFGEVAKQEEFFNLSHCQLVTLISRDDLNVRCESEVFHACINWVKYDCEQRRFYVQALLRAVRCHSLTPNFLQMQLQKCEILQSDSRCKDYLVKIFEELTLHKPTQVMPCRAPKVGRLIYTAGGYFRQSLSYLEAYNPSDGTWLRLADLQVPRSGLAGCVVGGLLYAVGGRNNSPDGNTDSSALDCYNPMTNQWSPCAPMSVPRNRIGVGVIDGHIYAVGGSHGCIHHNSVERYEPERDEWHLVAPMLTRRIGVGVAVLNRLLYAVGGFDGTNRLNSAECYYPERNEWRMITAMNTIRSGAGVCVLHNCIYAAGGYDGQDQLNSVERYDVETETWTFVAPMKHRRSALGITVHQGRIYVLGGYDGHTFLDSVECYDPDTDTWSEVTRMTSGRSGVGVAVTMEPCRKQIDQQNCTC
T2 sequence (Q14145 whole entry, the tested form may be a part): as above

Compound	Kp uu [3]	efflux ratio at 2 h, 10 µM (MDR1)	IC50 (Keap1/Nrf2 [4]) [µM]	other results
C[C@H](Oc1cccc(-c2cccc(-n3ncc(C(=O)O)c3[C@@H]3C[C@H]3c3cn(C)nn3)c2)c1)C1CCCCC1	–	–	–	IC50 (Keap1/Nrf2 [1]): < 10 nM
O=C(NCc1ccccn1)Nc1nnc(-c2ccco2)o1	–	–	–	EC2 [2]: 1.36 µM
O=C1c2ccccc2C(=O)N1C[C@@H]1c2ccccc2CCN1C(=O)C1CCCCC1	0.3	0.7	> 100	–
O=C(O)[C@H]1CCCC[C@H]1C(=O)N1CCc2ccccc2[C@H]1CN1Cc2ccccc2C1=O	–	7.5	1.1	–
O=C(O)[C@H]1NCCC[C@H]1C(=O)N1CCc2ccccc2[C@H]1CN1C(=O)c2ccccc2C1=O	< 0.01	–	–	–
O=C(O)[C@H]1CCCC[C@H]1C(=O)N1CCc2ccccc2[C@H]1Cc1ccccc1	0.9	0.7	> 100	–
CCCC[C@@H]1CCCN1C(=O)c1cccc(-c2cccc(-n3ncc(C(=O)O)c3C3CC3)c2)c1	–	–	–	IC50 [5]: 10 to 100 nM; EC50 (Keap1/Nrf2 [6]): 79 nM
O=C(O)[C@H]1CCCC[C@H]1C(=O)N1CCc2ccccc2[C@H]1CN1C(=O)c2ccccc2C1=O	< 0.01	–	–	Kp uu [7]: 0.4
